Source: patent US20040110770A1, “Oxindoles which are inhibitors of CDK-1 and their application in therapeutics” (AVENTIS PHARMA SA, priority 2001, published 2004)
Read-outs that look alike come from different tables or passages of the source.

Legend:
HCT-116 cells [1] = conditions: HCT-116, 1 μg/ml
Method: The HCT-116 cells are seeded in Nunc 6-well dishes.
The cells are treated with 30 μM BrDU for 30 minutes and then trypsinized. After fixing the cells in 1% paraformaldehyde for 16 hours, the latter are digested in pepsin/hydrochloric acid and then rinsed in PBS 1×. Immunolabelling is carried out with an anti-BrDU primary antibody (Becton Dickinson) and a GAM-FITC secondary antibody (Coulter). The DNA is subsequently labelled with propidium iodide in PBS comprising 1 mg/ml of boiled RNAse. This method makes it possible to count the cells in the G1, S and G2M phases.

HCT-116 cells [2] = experiment: cells; conditions: Homo sapiens, HCT-116, 96 h, read-out: HCT-116 IC50 (inhibition of proliferation)
Method: The HCT-116 cells are cultured as a layer in a culture flask in Dulbecco's medium comprising L-glutamine 2 mM, penicillin 200 U/ml, streptomycin 2 μg/ml, with the addition of 10% of heat-inactivated foetal calf serum.
The incorporation of the dye in the cell, which reflects cell growth, is evaluated by spectrophotometry at a wavelength of 540 nm for each sample using a Dynatech MR5000 reading device.
For each compound concentration tested, the results are expressed as percentage of inhibition of cell growth and are calculated from the untreated control and from the cell-free (blank) culture medium according to the following formula:
(Value compound−value blank/value cell control−value blank)×100.

C6 = experiment: cells; conditions: Rattus norvegicus, C6, 288 h, read-out: IC50 inhibition of clonogenicity
Method: (§1) The Calc18 human tumour line is a gift from Professor G. Riou (Institut Gustave Roussy, Villejuif, France).
(§2) The cells in exponential growth phase are trypsinized, washed in PBS 1× and diluted to a final concentration of 5000 cells/ml in complete medium. The test products (in a volume of 50 μl) are added to 2.5 ml of suspension. […] The mixture is then immediately poured into Petri dishes and left at +4° C. for 5 minutes to solidify the agar.
(§3) The results are expressed as percentage of inhibition of the clonogenicity with respect to controls. The IC50 is determined graphically from the mean results determined for each concentration of compound.

Lovo = experiment: cells; conditions: Homo sapiens, 288 h, read-out: IC50 inhibition of clonogenicity
Method: as §1, §2, §3

PC-14 = experiment: cells; conditions: Homo sapiens, PC-14, 288 h, read-out: IC50 inhibition of clonogenicity
Method: as §1, §2, §3

PC-3 = experiment: cells; conditions: Homo sapiens, PC-3, 288 h, read-out: IC50 inhibition of clonogenicity
Method: as §1, §2, §3

HCT-116 = experiment: cells; conditions: Homo sapiens, HCT-116, 288 h, read-out: IC50 inhibition of clonogenicity
Method: as §1, §2, §3

HLF = experiment: cells; conditions: Homo sapiens, 288 h, read-out: IC50 inhibition of clonogenicity
Method: as §1, §2, §3

HCT-8 = experiment: cells; conditions: Homo sapiens, HCT-8, 288 h, read-out: IC50 inhibition of clonogenicity
Method: as §1, §2, §3

HLE = experiment: cells; conditions: Homo sapiens, 288 h, read-out: IC50 inhibition of clonogenicity
Method: as §1, §2, §3

Calc18 = experiment: cells; conditions: Homo sapiens, 288 h, read-out: IC50 inhibition of clonogenicity
Method: as §1, §2, §3

HT-29 = experiment: cells; conditions: Homo sapiens, HT-29, 288 h, read-out: IC50 inhibition of clonogenicity
Method: as §1, §2, §3

[3] = system: p34cdc2/cyclin B (CDK1/cyclin B); experiment: Inhibition of the p34cdc2/cyclin B activity (32P transfer from ATP to histone H1); type: biochemical, starfish or human recombinant
Method: The protein Histone H1 (type III-S) is obtained from Sigma. […] The reaction medium is prepared according to the following composition: 10 μl of enzymatic preparation are added to 5 μl of Histone H1 (5 mg/ml in buffer C) and to 7 μl of buffer C and mixed. 17.5 μl of the mixture are distributed in the tubes immediately before the test. 3 μl of inhibiting agent to be tested are added to each tube. The reaction is begun by the addition of 5 μl of the ATP solution, followed by incubating for 15 minutes at 30° C. The reaction is halted by the addition of 0.5 volumes of Laemli 3× buffer. […] The analysis and the quantification of the phosphorylation of the Histone H1 are carried out using an Instant-Imager device (Packard).

HCT-8 cells = conditions: HCT-8, 48 hours
Method: The percentage of mitotic cells and of cells having apoptotic nuclear bodies is determined by examination and counting of a sample of at least 300 cells distributed over several points of the slide using a fluorescent microscope.

For `O=C1Nc2ccc(-c3cccnc3)cc2C1=Cc1cnc[nH]1` [Compound 1, 1,3-dihydro-3-(imidazol-4-ylmethylene)-5-(pyrid-3-yl)-2H-indolin-2-one], the “Cells in G1 phase (%)” value (HCT-116 cells [1]; contact time 4 h) was 62.2%, the “Cells in G2-M phase (%)” value (HCT-116 cells [1]; contact time 4 h) was 16.4% and the “Cells in S phase (%)” value (HCT-116 cells [1]; contact time 4 h) was 20.1%. For the same compound, the “Cells in G1 phase (%)” value (HCT-116 cells [1]; contact time 24 h) was 26.8%, the “Cells in G2-M phase (%)” value (HCT-116 cells [1]; contact time 24 h) was 31.4% and the “Cells in S phase (%)” value (HCT-116 cells [1]; contact time 24 h) was 39.5%. The “Cells in G1 phase (%)” value (HCT-116 cells [1]; contact time 48 h) was 7.9%, the “Cells in G2-M phase (%)” value (HCT-116 cells [1]; contact time 48 h) was 58.9% and the “Cells in S phase (%)” value (HCT-116 cells [1]; contact time 48 h) was 30.9%. For the same compound, the “Cells in G1 phase (%)” value (HCT-116 cells [1]; contact time 72 h) was 7.8%, the “Cells in S phase (%)” value (HCT-116 cells [1]; contact time 72 h) was 5.1% and the IC50 (HCT-116 cells [2]) was 280 nM. It also gave an IC50 (C6) of 10800 nM, an IC50 (Lovo) of 900 nM and an IC50 (PC-14) of 1100 nM. For the same compound, the IC50 (PC-3) was 190 nM, the IC50 (HCT-116) was 280 nM and the IC50 (HLF) was 1100 nM. For the same compound, the IC50 (HCT-8) was 1040 nM, the IC50 (HLE) was 1200 nM and the IC50 (Calc18) was 1060 nM. The IC50 (HT-29) was 1420 nM, the “CDK1 % inhibition at 10 μM” value [3] was 99% and the “Apoptotic cells (%)” value (HCT-8 cells; 0.1 μg/ml) was 8.5%. The “Apoptotic cells Factor/control” value (HCT-8 cells; 0.1 μg/ml) was 3.5, the “Mitotic cells (%)” value (HCT-8 cells; 0.1 μg/ml) was 2.8% and the “Mitotic cells Factor/control” value (HCT-8 cells; 0.1 μg/ml) was 0.4. The “Apoptotic cells (%)” value (HCT-8 cells; 1 μg/ml) was 16%, the “Apoptotic cells Factor/control” value (HCT-8 cells; 1 μg/ml) was 6.6 and the “Mitotic cells (%)” value (HCT-8 cells; 1 μg/ml) was 0.7%. The “Mitotic cells Factor/control” value (HCT-8 cells; 1 μg/ml) was 0.1, the “Apoptotic cells (%)” value (HCT-8 cells; 10 μg/ml) was 42.5% and the “Apoptotic cells Factor/control” value (HCT-8 cells; 10 μg/ml) was 17.7. The “Mitotic cells (%)” value (HCT-8 cells; 10 μg/ml) was 0.4% and the “Mitotic cells Factor/control” value (HCT-8 cells; 10 μg/ml) was 0.06.
`CNC(=O)c1ccc2c(c1)C(=Cc1c[nH]cn1)C(=O)N2` [Compound 3, 1,3-dihydro-3-(imidazol-4-ylmethylene)-5-(N-methylcarboxamido)-2H-indolin-2-one] was tested, and the “CDK1 % inhibition at 10 μM” value ([3]; 10 μM) was 100%.
For `CC(=O)Nc1ccc2c(c1)C(=Cc1c[nH]cn1)C(=O)N2` [Compound 4, 1,3-dihydro-3-(imidazol-4-ylmethylene)-5-(acetylamino)-2H-indolin-2-one], the “CDK1 % inhibition at 10 μM” value ([3]; 10 μM) was 100%.
For `O=C1Nc2ccc(Br)cc2C1=Cc1cnc[nH]1` [Compound 5-3], the “CDK1 % inhibition at 10 μM” value ([3]; 10 μM) was 100%.
`O=C1Nc2ccc([N+](=O)[O-])cc2C1=Cc1ccc[nH]1` [Compound 5-6] was tested, and the “CDK1 % inhibition at 10 μM” value ([3]; 10 μM) was 91%.
`O=C1Nc2ccc(C(=O)c3cccs3)cc2C1=Cc1cnc[nH]1` [Compound 5-7] was tested, and the “CDK1 % inhibition at 10 μM” value ([3]; 10 μM) was 100%.
In the case of `O=C1Nc2ccc([N+](=O)[O-])cc2C1=Cc1cnc[nH]1` [Compound 5-8], the “CDK1 % inhibition at 10 μM” value ([3]; 10 μM) is reported as 81%.
With `Cc1nc[nH]c1C=C1C(=O)Nc2ccc(-c3cccnc3)cc21` [Compound 5-10] the “CDK1 % inhibition at 10 μM” value ([3]; 10 μM) was 100%.
For `Cc1nc[nH]c1C=C1C(=O)Nc2ccc(C(=O)O)cc21` [Compound 5-11], the “CDK1 % inhibition at 10 μM” value ([3]; 10 μM) was 100%.
With `Cc1nc[nH]c1C=C1C(=O)Nc2ccc(S(N)(=O)=O)cc21` [Compound 5-12] the “CDK1 % inhibition at 10 μM” value ([3]; 10 μM) was 100%.
